Data reported in PubChem BioAssay AID328 (DTP/NCI, 2004).
Where “and” joins values, the source holds several entries; their conditions need not be identical. Identical values can stand only once. Toxic doses and inconclusive results are not listed. How the source made its calls: active means survival T/C of 150% or more; inactive means T/C below 125% in these data.

System: BDF1 mice, P388 leukemia ip, median survival T/C
Assay: NCI In Vivo Anticancer Drug Screen. Data for tumor model P388 Leukemia (intraperitoneal) in B6D2F1 (BDF1) mice
Settings: endpoint: median survival time, higher = longer survival
Protocol: The antitumor activity of compounds was measured in mice bearing transplantable tumors. Survival or tumor size were measured and the results are expressed as the measurement made in the treated group (T) divided by the measurement made in the vehicle treated control group (C). The tumor model used in this assay is P388 Leukemia (intraperitoneal) in B6D2F1 (BDF1) mice

[1] = dose: 50.0 mg/kg/injection, schedule: Q04DX003 (ip), vehicle: Klucel (hydroxypropylcellulose) (HPC)
[2] = dose: 100.0 mg/kg/injection, schedule: Q04DX003 (ip), vehicle: Klucel (hydroxypropylcellulose) (HPC)
[3] = dose: 200.0 mg/kg/injection, schedule: Q04DX003 (ip), vehicle: Klucel (hydroxypropylcellulose) (HPC)
[4] = dose: 100.0 mg/kg/injection, schedule: Q01DX001 (ip), vehicle: Klucel (hydroxypropylcellulose) (HPC)
[5] = dose: 200.0 mg/kg/injection, schedule: Q01DX001 (ip), vehicle: Klucel (hydroxypropylcellulose) (HPC)
[6] = dose: 400.0 mg/kg/injection, schedule: Q01DX001 (ip), vehicle: Klucel (hydroxypropylcellulose) (HPC)
[7] = dose: 25.0 mg/kg/injection, schedule: Q04DX003 (ip), vehicle: saline
[8] = dose: 50.0 mg/kg/injection, schedule: Q01DX009 (ip), vehicle: saline with Tween-80
[9] = dose: 100.0 mg/kg/injection, schedule: Q01DX009 (ip), vehicle: saline with Tween-80
[10] = dose: 200.0 mg/kg/injection, schedule: Q01DX009 (ip), vehicle: saline with Tween-80
[11] = dose: 50.0 mg/kg/injection, schedule: Q01DX009 (ip), vehicle: other

Measured: T/C

CCCCC[C@H](O)/C=C/[C@H]1[C@H](O)CC(=O)[C@@H]1C/C=C\CCCC(=O)O
inactive: dose: 50.0 mg/kg/injection, schedule: Q04DX002 (ip), vehicle: Klucel (hydroxypropylcellulose) (HPC) 122 % of control | dose: 100.0 mg/kg/injection, schedule: Q04DX002 (ip), vehicle: Klucel (hydroxypropylcellulose) (HPC) 105 % of control | dose: 200.0 mg/kg/injection, schedule: Q04DX002 (ip), vehicle: Klucel (hydroxypropylcellulose) (HPC) 114 % of control | dose: 400.0 mg/kg/injection, schedule: Q04DX002 (ip), vehicle: Klucel (hydroxypropylcellulose) (HPC) 114 % of control

O=[N+]([O-])c1ccc(N2CCCCC2)c2c1no[n+]2[O-]
inactive: dose: 15.0 mg/kg/injection, schedule: Q01DX009 (ip), vehicle: saline with Tween-80 88 % of control | dose: 30.0 mg/kg/injection, schedule: Q01DX009 (ip), vehicle: saline with Tween-80 93 % of control | dose: 60.0 mg/kg/injection, schedule: Q01DX009 (ip), vehicle: saline with Tween-80 95 % of control

CC(C)=NNS(=O)(=O)c1ccc(C)cc1
inactive: dose: 25.0 mg/kg/injection, schedule: Q04DX003 (ip), vehicle: Klucel (hydroxypropylcellulose) (HPC) 106 % of control | [1] 106 % of control | [2] 111 % of control | [3] 111 % of control

O=C1C=C(Cl)C(=O)C2=C1CCCC2
inactive: dose: 0.39 mg/kg/injection, schedule: Q04DX002 (ip), vehicle: saline 92 % of control | dose: 0.78 mg/kg/injection, schedule: Q04DX002 (ip), vehicle: saline 97 % of control | dose: 1.56 mg/kg/injection, schedule: Q04DX002 (ip), vehicle: saline with Tween-80 96 % of control | dose: 1.56 mg/kg/injection, schedule: Q04DX002 (ip), vehicle: saline 101 % of control

COc1cc(/C=N/NC(=O)COCC(=O)N/N=C/c2ccc(O)cc2OC)ccc1O
inactive: dose: 200.0 mg/kg/injection, schedule: Q01DX005 (ip), vehicle: saline with Tween-80 96 % of control

CCOC(=O)C1=C(C)NC(C)=C(C(=O)OCC)C1
inactive: dose: 100.0 mg/kg/injection, schedule: Q01DX001 (ip), vehicle: saline with Tween-80 90 % of control | dose: 200.0 mg/kg/injection, schedule: Q01DX001 (ip), vehicle: saline with Tween-80 95 % of control | dose: 400.0 mg/kg/injection, schedule: Q01DX001 (ip), vehicle: saline with Tween-80 100 % of control

O=C(O)C1CC2c3ccccc3C1c1ccccc12 (stereo not given)
inactive: [2] 90 % of control | [3] 95 % of control | dose: 400.0 mg/kg/injection, schedule: Q04DX003 (ip), vehicle: Klucel (hydroxypropylcellulose) (HPC) 109 % of control

Sc1ccc2ccccc2c1
inactive: [1] 104 % of control | [4] 104 % of control | [2] 109 % of control | [5] 95 % of control | [3] 109 % of control | [6] 100 % of control

C=C1C(=O)O[C@@H]2CC(CO)=C([C@@H](C)CCCO)[C@@H](OC(=O)/C(C)=C\C)[C@H]12
inactive: dose: 2.0 mg/kg/injection, schedule: Q01DX009 (ip), vehicle: saline + alcohol 123 % of control | dose: 4.0 mg/kg/injection, schedule: Q01DX009 (ip), vehicle: saline + alcohol 104 % of control | dose: 8.0 mg/kg/injection, schedule: Q01DX009 (ip), vehicle: saline + alcohol 123 % of control | dose: 16.0 mg/kg/injection, schedule: Q01DX009 (ip), vehicle: saline + alcohol 114 % of control

NC(=O)c1ccc(N)nc1
inactive: dose: 6.25 mg/kg/injection, schedule: Q04DX003 (ip), vehicle: saline 121 % of control | dose: 8.33 mg/kg/injection, schedule: Q04DX003 (ip), vehicle: saline with Tween-80 100 % of control | dose: 12.5 mg/kg/injection, schedule: Q04DX003 (ip), vehicle: saline with Tween-80 100 % of control | dose: 18.75 mg/kg/injection, schedule: Q04DX003 (ip), vehicle: saline with Tween-80 105 % of control and 108 % of control | [7] 114 % of control

C=CCNC(=O)c1ccccc1OCC(=O)O
inactive: dose: 100.0 mg/kg/injection, schedule: Q01DX009 (ip), vehicle: gum acacia 100 % of control | dose: 100.0 mg/kg/injection, schedule: Q04DX003 (ip), vehicle: gum acacia 100 % of control | dose: 200.0 mg/kg/injection, schedule: Q01DX009 (ip), vehicle: gum acacia 95 % of control | dose: 200.0 mg/kg/injection, schedule: Q04DX003 (ip), vehicle: gum acacia 91 % of control | dose: 400.0 mg/kg/injection, schedule: Q01DX009 (ip), vehicle: gum acacia 91 % of control | dose: 400.0 mg/kg/injection, schedule: Q04DX003 (ip), vehicle: gum acacia 108 % of control

CCC(c1ccc(OC(=O)Cc2ccc(N(CCCl)CCCl)cc2)cc1)C(CC)c1ccc(OC(=O)Cc2ccc(N(CCCl)CCCl)cc2)cc1 (stereo not given)
inactive: dose: 25.0 mg/kg/injection, schedule: Q01DX009 (ip), vehicle: saline with Tween-80 96 % of control | [8] 104 % of control | dose: 64.0 mg/kg/injection, schedule: Q01DX009 (ip), vehicle: saline with Tween-80 92 % of control and 100 % of control | [9] 104 % of control | dose: 128.0 mg/kg/injection, schedule: Q01DX009 (ip), vehicle: saline with Tween-80 92 % of control and 98 % of control | [10] 98 % of control | dose: 256.0 mg/kg/injection, schedule: Q01DX009 (ip), vehicle: saline with Tween-80 93 % of control and 99 % of control | dose: 400.0 mg/kg/injection, schedule: Q01DX009 (ip), vehicle: saline with Tween-80 107 % of control | dose: 512.0 mg/kg/injection, schedule: Q01DX009 (ip), vehicle: saline with Tween-80 98 % of control and 104 % of control

CCCCOC(=O)C1(N)CCCC1
inactive: dose: 50.0 mg/kg/injection, schedule: Q01DX009 (ip), vehicle: saline 104 % of control | dose: 150.0 mg/kg/injection, schedule: Q01DX009 (ip), vehicle: saline with Tween-80 120 % of control | dose: 200.0 mg/kg/injection, schedule: Q01DX009 (ip), vehicle: saline 109 % of control

CN(C)CCCNc1c2ccccc2nc2cccc([N+](=O)[O-])c12
inactive: dose: 0.2 mg/kg/injection, schedule: Q04DX003 (ip), vehicle: saline 124 % of control | dose: 0.5 mg/kg/injection, schedule: Q04DX003 (ip), vehicle: saline 101 % of control

S=C(NNC(=S)Nc1ccc(Cl)cc1)NNc1ccccc1
inactive: dose: 25.0 mg/kg/injection, schedule: Q01DX009 (ip), vehicle: other 100 % of control | [11] 100 % of control | [1] 104 % of control | [4] 100 % of control | dose: 100.0 mg/kg/injection, schedule: Q01DX009 (ip), vehicle: other 115 % of control | [2] 100 % of control | dose: 150.0 mg/kg/injection, schedule: Q01DX009 (ip), vehicle: Klucel (hydroxypropylcellulose) (HPC) 110 % of control | [5] 90 % of control | [3] 100 % of control | dose: 220.0 mg/kg/injection, schedule: Q01DX009 (ip), vehicle: Klucel (hydroxypropylcellulose) (HPC) 110 % of control | dose: 225.0 mg/kg/injection, schedule: Q01DX009 (ip), vehicle: Klucel (hydroxypropylcellulose) (HPC) 110 % of control | dose: 335.0 mg/kg/injection, schedule: Q01DX009 (ip), vehicle: Klucel (hydroxypropylcellulose) (HPC) 110 % of control | [6] 104 % of control

Cc1ccc(NCCNCC(C)(C)O)c2c(=O)c3ccccc3sc12
inactive: dose: 12.5 mg/kg/injection, schedule: Q04DX003 (ip), vehicle: saline 100 % of control | [7] 120 % of control | dose: 50.0 mg/kg/injection, schedule: Q04DX003 (ip), vehicle: saline 120 % of control | dose: 75.0 mg/kg/injection, schedule: Q04DX003 (ip), vehicle: saline 100 % of control and 115 % of control and 118 % of control | dose: 115.0 mg/kg/injection, schedule: Q04DX003 (ip), vehicle: saline 115 % of control and 120 % of control | dose: 170.0 mg/kg/injection, schedule: Q04DX003 (ip), vehicle: saline 115 % of control and 122 % of control

NNC(=O)c1ccc(Br)cc1
inactive: dose: 50.0 mg/kg/injection, schedule: Q01DX009 (ip), vehicle: Klucel (hydroxypropylcellulose) (HPC) 96 % of control | dose: 100.0 mg/kg/injection, schedule: Q01DX009 (ip), vehicle: Klucel (hydroxypropylcellulose) (HPC) 92 % of control | [2] 95 % of control | [3] 91 % of control

COc1ccc(C=C2C(=O)N(C)C(=O)N(C)C2=O)cc1
inactive: [11] 119 % of control

Cc1ccc(S(=O)(=O)[O][Pb]([CH3])([CH3])[CH3])cc1
inactive: dose: 1.5 mg/kg/injection, schedule: Q01DX009 (ip), vehicle: saline 103 % of control

NC(=S)NCc1ccccc1C(O)c1ccccc1 (stereo not given)
inactive: [8] 94 % of control | [9] 91 % of control | [10] 101 % of control
